{"source": "patent US8633204B2", "about": "(Pfizer Inc., priority 2006, dated 2014)", "key": {"[1]": {"test_system": "SKOV3 tumor model", "test": "Mouse xenograft efficacy study, SKOV3", "format": "in vivo", "conditions": "for Growth Inhibition (%): SKOV3 ovarian xenograft", "method": "(§1) The in vivo efficacy of 2-amino-8-(trans-4-hydroxycyclohexyl)-6-(6-methoxypyridin-3-yl)-4-methylpyrido[2,3-d]pyrimidin-7(8H)-one (Compound 152) disclosed in Example 53 was examined in s.c. xenograft model. Human tumor cell lines PC3 (PTEN deletion)), U87MG (PTEN deletion) and SKOV3 (PI3Kα […]) were chosen for in vivo efficacy studies due to their different genetic background and relatively high levels of phospho AKT S473 signal. Cells were implanted in the hind flank of athymic mice and tumors grew in size to 100-200 mm^3 before daily oral treatment with Compound 152 was initiated. […] For all models tested 1 mg/kg was an efficacious dose.\n(§2) Animal Care: Female and male athymic mice (6-8 weeks old) weighing ˜22 g were obtained from Charles River Laboratory. Animal were housed on a 12 h light/dark cycle in the Pfizer vivarium and all procedures are conducted in accordance with the Pfizer Institutional Animal Care and Use Committee (IACUC). Animals are provided free access to rodent chow and water ad libitum and maintained under clean room conditions. Prior to study start animals acclimate for at least 48 h.\n(§3) Cell lines: All cell lines were cultured at 37° C. in humidified 5% CO2 incubator. U87 MG glioblastoma tumor cell line was obtained from American Type Culture Collection (ATCC) and cultured with DMEM supplemented with 15% FBS and 2 mM glutamine. PC3 prostate cancer cell line were obtained from National Cancer Institute and cultured in RPMI media supplemented with 10% FBS and 2 mM glutamine. SKOV3 ovarian cancer cells were obtained from ATCC and passaged multiple times through mice, and cultured in McCoy's 5A media supplemented with 10% FBS and 2 mM glutamine. All cell lines were tested by University of Missouri Research Animal Diagnostic Laboratory for known species of murine viruses and mycoplasma contamination.\n(§4) Mouse Xenograft Models: U87MG (glioblastoma), PC3 (prostate cancer) and SKOV3 (ovarian cancer) cell lines in culture were harvested by trypsinisation. Briefly, 2.5−4×10^6 tumor cells were suspended in the medium used to culture each cell line without serum and implanted sub-cutaneously (s.c) into the hind flank region of mice on day 0. Daily treatment with Compound 152, formulated in 10% ethanol, 40% PEG and 50% sodium citrate buffer or vehicle alone commenced 10-14 d after implantation when average tumors were 100-200 mm^3 in size. Tumors were measured twice weekly and tumor volume was calculated as a product of (length×width^2)/2. Studies were typically terminated when the tumor in the vehicle treated animals reached a size of >1500 mm3 or when judged to adversely affect the well being of the animal. […] Where applicable, percent tumor regression for each group was calculated as 100×(tumor volumeinitial−tumor volumefinal)/(tumor volumeinitial). A cohort of 12 animals was used for each dose group for efficacy studies. A representative cohort of animals were sacrificed at the times indicated, tumors resected, and a blood sample taken from the cardiac left ventricle and immediately placed in a vial primed with heparin sulfate. Typically one half of the tumor was fixed in 10% neutral buffered formalin, paraffin embedded, and sectioned for immunohistochemistry. The other half was frozen in liquid nitrogen and later processed to generate cell lysates for target modulation studies."}, "[2]": {"test_system": "phosphorylation of AKT on S473 in SKOV3 tumors", "test": "In vivo target modulation study, SKOV3 tumors", "design": "species or system mouse", "method": "(§5) In vivo target modulation studies to determine the effect of Compound 152 treatment on the phosphorylation of AKT on S473 by ELISA and S6 on S235/S236 by IHC were performed. Resected tumors were frozen on dry ice and pulverized using the FAST PREP instrument (Qbiogene). Briefly, frozen tumors were placed in Fast Prep matrix tubes, cold lysis buffer [20 mM HEPES (pH 7.5), 150 mM NaCl, 1.0 mM sodium EDTA, 1% Triton X-100, 2.5 mM sodium pyrophosphate, 1 mM sodium orthovanadate, 1 μg/ml leupeptin, and 1 mM PMSF] was added and samples were centrifuged for 5 sec, mixed and process repeated two more times. Samples were centrifuged in a cold refrigerated Eppendorf centrifuge at 14,000 RPM for 20 min. Supernatant was collected and total and phosphoAKT (S473) protein levels determined by ELISA. The extent of phosphorylation in tumors resected from treated animals was compared with that in tumors resected from vehicle-treated animals at the same time point. Plasma samples, obtained by centrifuging individual blood samples at 3000×g for 5 min at 4° C. in an Eppendorf 5417R centrifuge, were stored at −80° C. until they could be analyzed for drug concentration. Briefly, plasma samples (50 μl) or Compound 152 standards in mouse plasma were mixed with acetonitrile […]) and injected onto a LC/MS/MS system where separation occurred on a C-18 SB phenyl (5 μM, 2.1×50 mm, Agilent) reverse-phase high-performance liquid chromatography column. The amount of inhibitor and the internal standard (0.5 μM buspirone) in each mouse plasma sample was quantified based on standard curves generated using known amounts of compound. […] Time course and dose response of in vivo target modulation and plasma inhibitor concentrations were determined post last dose at the end of the efficacy study described above and data are summarized in Table 4."}, "[3]": {"test_system": "phosphorylation of AKT on S473 in U87MG tumors", "test": "In vivo target modulation study, U87MG tumors", "design": "species or system mouse", "conditions": "for p-Akt/Akt(%): 1 h post last dose", "method": "as §5"}, "[4]": {"test_system": "PC3 tumor model", "test": "Mouse xenograft efficacy study, PC3", "format": "in vivo", "method": "as §1, §2, §3, §4"}, "[5]": {"conditions": "SKOV3 tumor model, daily oral treatment"}, "[6]": {"conditions": "PC3 tumor model, daily oral treatment"}}, "note": "pEC50: −log10 of the molar value. “Also recorded” adds a separate entry of the source.", "data": [{"smiles": "COc1ccc(-c2cc3c(C)nc(N)nc3n([C@H]3CC[C@H](O)CC3)c2=O)cn1", "note": "[Compound 152, 2-amino-8-(trans-4-hydroxycyclohexyl)-6-(6-methoxypyridin-3-yl)-4-methylpyrido[2,3-d]pyrimidin-7(8H)-one]", "values": [{"measurement": "Growth Inhibition (%)", "setting": "[1]; 0.5 mg/kg/day oral", "result": 46, "unit": "%"}, {"measurement": "Growth Inhibition (%)", "setting": "[1]; 1 mg/kg/day oral", "result": 66, "unit": "%"}, {"measurement": "Growth Inhibition (%)", "setting": "[1]; 2 mg/kg/day oral", "result": 82, "unit": "%"}, {"measurement": "anti-tumor efficacy", "setting": "[1]; [5]", "result": "dose-dependent anti-tumor efficacy; also recorded: growth inhibition"}, {"measurement": "efficacious dose", "setting": "[1]; [5]", "result": 1, "unit": "mg/kg"}, {"measurement": "p-Akt/Akt(%)", "setting": "[2]; SKOV3, 0.5 mg/kg, 3 h post last dose", "result": "30 ± 3", "unit": "%"}, {"measurement": "p-Akt/Akt(%)", "setting": "[2]; SKOV3, 0.5 mg/kg, 7 h post last dose", "result": "55 ± 4", "unit": "%"}, {"measurement": "p-Akt/Akt(%)", "setting": "[2]; SKOV3, 0.5 mg/kg, 24 h post last dose", "result": "147 ± 21", "unit": "%"}, {"measurement": "p-Akt/Akt(%)", "setting": "[2]; SKOV3, 1 mg/kg, 3 h post last dose", "result": "27 ± 6", "unit": "%"}, {"measurement": "p-Akt/Akt(%)", "setting": "[2]; SKOV3, 1 mg/kg, 7 h post last dose", "result": "48 ± 17", "unit": "%"}, {"measurement": "p-Akt/Akt(%)", "setting": "[2]; SKOV3, 1 mg/kg, 24 h post last dose", "result": "124 ± 10", "unit": "%"}, {"measurement": "p-Akt/Akt(%)", "setting": "[2]; SKOV3, 2 mg/kg, 3 h post last dose", "result": "23 ± 5", "unit": "%"}, {"measurement": "p-Akt/Akt(%)", "setting": "[2]; SKOV3, 2 mg/kg, 7 h post last dose", "result": "30 ± 13", "unit": "%"}, {"measurement": "p-Akt/Akt(%)", "setting": "[2]; SKOV3, 2 mg/kg, 24 h post last dose", "result": "126 ± 20", "unit": "%"}, {"measurement": "inhibition of pAKT at S473", "setting": "[2]; SKOV3 tumors in vivo", "result": "dose dependent inhibition"}, {"measurement": "pEC50", "setting": "[3]; Mus musculus, U-87 MG, read-out: EC50 plasma concentration for pAKT S473 target modulation", "result": 7.62}, {"measurement": "p-Akt/Akt(%)", "setting": "[3]; U87, 0.1 mg/kg", "result": 44, "unit": "%"}, {"measurement": "p-Akt/Akt(%)", "setting": "[3]; U87, 0.3 mg/kg", "result": 27, "unit": "%"}, {"measurement": "p-Akt/Akt(%)", "setting": "[3]; U87, 1 mg/kg", "result": 11, "unit": "%"}, {"measurement": "inhibition of pAKT at S473", "setting": "[3]; U87MG tumors in vivo", "result": "dose dependent inhibition"}, {"measurement": "Growth Inhibition (%)", "setting": "[4]; PC3 prostate xenograft, 0.25 mg/kg/day oral", "result": 45, "unit": "%"}, {"measurement": "Growth Inhibition (%)", "setting": "[4]; PC3 prostate xenograft, 0.5 mg/kg/day oral", "result": 62, "unit": "%"}, {"measurement": "Growth Inhibition (%)", "setting": "[4]; PC3 prostate xenograft, 1 mg/kg/day oral", "result": 89, "unit": "%"}, {"measurement": "Regression (%)", "setting": "[4]; PC3 prostate xenograft, 2 mg/kg/day oral", "result": 19, "unit": "%"}, {"measurement": "anti-tumor efficacy", "setting": "[4]; [6]", "result": "dose-dependent anti-tumor efficacy; also recorded: regression"}, {"measurement": "efficacious dose", "setting": "[4]; [6]", "result": 1, "unit": "mg/kg"}]}]}
